Converted amounts (≈) assume the structure as drawn. “Also recorded” adds a separate entry of the source.
What was measured:
[1] = molecular target: T1, SpCas9 (Streptococcus pyogenes serotype M1, UniProt Q99ZW2); test: mKate2 expression (knockdown) assay; type: cell-based; settings: for activity in mKate2 assay: HEK293 cells, 1.5-5 μM, 24 h
Description: mKate2 expression assay. Approximately 8,000 cells/well were plated in a 96-well format 24 h before transiently transfected with 100 ng of either CgRNA (Addgene Plasmid #64955) or T1gRNA (Addgene Plasmid #62717) plasmids using lipofectamine 2000 (Life Technologies). Transfected cells were allowed to grow in the indicated amount of compound or DMSO for 24 h. Cells were then fixed using 4% paraformaldehyde and imaged with the HCS NuclearMask™ Blue Stain (Life Technologies) as the nuclear counter-staining agent. Imaging was performed with an IXM 137204 ImageXpress Automated High Content Microscope (Molecular Devices) at 20× magnification under two excitation channels (blue and red) with 9 acquiring sites per well. Images were analyzed in the MetaXpress software to determine the % mKate2 positive cells and the % NHEJ was calculated following a reported protocol and plotted using GraphPad Prism 6. The Z′-value was calculated following the formula: […]

[2] = molecular target: T1, SpCas9; test: mCherry-GFP NHEJ assay; type: cell-based; settings: HEK293T cells; 2-10 μM; 24 h
Description: NHEJ assay. Approximately 8,000 cells/well were plated in a 96-well format 24 h before transiently transfected with a total 100 ng of DN66 (mCherry-TAG-GFP reporter) and DN78 (SpCas9 and gRNA) plasmids (1:1) using lipofectamine 2000 (Life Technologies) 3. Transfected cells were allowed to grow in the indicated amount of compound or DMSO for 24 h. Cells were then fixed using 4% paraformaldehyde and imaged with the HCS NuclearMask™ Blue Stain (Life Technologies) as the nuclear counter-staining agent. Imaging was performed with an IXM 137204 ImageXpress Automated High Content Microscope (Molecular Devices) at 20× magnification under three excitation channels (blue, green and red) with 9 acquiring sites per well. Images were analyzed in the MetaXpress software to determine the % NHEJ and the data were plotted using GraphPad Prism 6. The Z′-value was calculated following the formula: […]

[3] = tested on: S. aureus RN4220 strain; test: Toxicity study of compounds in bacterial culture (no phage); type: cell-based; settings: 20 μM; 16 h; inhibitor alone
Description: FIG. 79. Toxicity study of compounds in bacterial culture. Bacterial growth study in the presence of the compound. Bacterial cell S. aureus RN4220 strain was allowed to grow either in the presence of DMSO or 20 μM of compound BRD7087 or BRD5779 over 16 h. The experiment was performed in three technical replicates.
Bacterial study. Plasmid pRH248 harboring SpCas9, tracrRNA and a single-spacer array ([…]) (SEQ ID 13) No. targeting phage (DNM474 was constructed via BsaI cloning onto pDB114 as described in Heler et al 6. Plate reader growth curves of bacteria infected with phage were conducted as described previously with minor modifications 7. Overnight cultures were diluted 1:100 into 2 ml of fresh BHI supplemented with appropriate antibiotics and 5 mM CaCl2) and grown to an OD600 of ˜0.2. Immune cells carrying pRH248 were diluted with cells lacking CRISPR-Cas in a 1:10,000 ratio. […] To produce plate reader growth curves, 200 μL of infected cultures, normalized for OD600, were transferred to a 96-well plate in triplicate. […]
Bacterial study. […] Plate reader growth curves of bacteria infected with phage were conducted as described previously with minor modifications^7. […] To produce plate reader growth curves, 200 μL of infected cultures, normalized for OD600, were transferred to a 96-well plate in triplicate. […]

[4] = Solubility in PBS determined by mass spectroscopy; type: physicochemical; settings: aqueous buffer, 24 h incubation at room temperature, read-out: solubility: no detectable aggregation up to
Description: FIG. 15—The solubility of BRD7087 compound in PBS as determined by mass spectroscopy after 24 h of incubation at room temperature. Compounds Antipyrine and Clotrimazole were used as positive controls.
FIG. 59. The solubility of BRD7087 compound in PBS as determined by Mass spectroscopy after 24 h of incubation at room temperature. Compounds Antipyrine and Clotrimazole have been used as the positive controls.

T1 sequence (Q99ZW2 whole entry): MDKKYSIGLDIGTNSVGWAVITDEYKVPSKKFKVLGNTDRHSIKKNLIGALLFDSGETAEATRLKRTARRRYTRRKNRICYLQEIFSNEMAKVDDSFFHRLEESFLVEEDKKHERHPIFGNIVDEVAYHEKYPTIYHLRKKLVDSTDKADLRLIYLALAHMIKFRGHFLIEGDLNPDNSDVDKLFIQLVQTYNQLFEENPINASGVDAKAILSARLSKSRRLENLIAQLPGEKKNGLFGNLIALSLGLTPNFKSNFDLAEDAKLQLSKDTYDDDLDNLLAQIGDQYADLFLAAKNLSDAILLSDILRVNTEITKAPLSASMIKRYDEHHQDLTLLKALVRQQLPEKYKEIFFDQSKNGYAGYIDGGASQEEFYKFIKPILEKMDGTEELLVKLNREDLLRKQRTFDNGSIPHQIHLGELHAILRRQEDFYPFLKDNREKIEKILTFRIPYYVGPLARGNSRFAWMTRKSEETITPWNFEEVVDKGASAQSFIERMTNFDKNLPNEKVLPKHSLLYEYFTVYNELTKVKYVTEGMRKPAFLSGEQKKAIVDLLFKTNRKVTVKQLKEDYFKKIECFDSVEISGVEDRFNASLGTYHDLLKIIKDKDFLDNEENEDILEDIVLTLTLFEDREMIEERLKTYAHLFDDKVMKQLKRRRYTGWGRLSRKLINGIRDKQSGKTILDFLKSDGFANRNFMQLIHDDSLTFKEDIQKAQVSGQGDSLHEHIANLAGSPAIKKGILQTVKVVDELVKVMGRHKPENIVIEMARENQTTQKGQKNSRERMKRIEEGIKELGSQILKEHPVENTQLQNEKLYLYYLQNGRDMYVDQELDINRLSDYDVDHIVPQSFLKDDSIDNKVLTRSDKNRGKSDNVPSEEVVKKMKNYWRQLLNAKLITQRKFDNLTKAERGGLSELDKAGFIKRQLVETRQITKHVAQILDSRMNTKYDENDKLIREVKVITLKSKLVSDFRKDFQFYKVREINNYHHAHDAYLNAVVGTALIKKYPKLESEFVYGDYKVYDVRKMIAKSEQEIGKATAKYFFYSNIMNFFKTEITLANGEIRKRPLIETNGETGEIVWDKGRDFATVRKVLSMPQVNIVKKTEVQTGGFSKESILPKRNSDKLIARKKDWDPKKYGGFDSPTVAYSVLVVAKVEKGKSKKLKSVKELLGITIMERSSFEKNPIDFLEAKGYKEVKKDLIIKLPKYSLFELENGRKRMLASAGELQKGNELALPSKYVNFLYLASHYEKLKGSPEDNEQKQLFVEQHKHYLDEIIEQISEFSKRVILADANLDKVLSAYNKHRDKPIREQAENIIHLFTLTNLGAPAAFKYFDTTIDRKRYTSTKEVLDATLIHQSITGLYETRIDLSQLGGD

With `COc1ccc(-c2ccc3c(c2)[C@H]2[C@H](CCN2Cc2ccncc2)[C@@H](CO)N3)cc1` [BRD5779, ((3aR,4S,9bR)-8-(4-Methoxyphenyl)-1-(pyridin-4-ylmethyl)-2,3,3a,4,5,9b-hexahydro-1H-pyrrolo[3,2-c]quinolin-4-yl)methanol] the “activity in mKate2 assay” value [1] was “Dose-dependent recovery of the mKate2 signal”, the “inhibition of SpCas9-mediated NHEJ” value [2] was “Dose-dependent inhibition of SpCas9-mediated NHEJ; also recorded: active” and the “toxicity to bacteria in the absence of phage” value [3] was “non-toxic in the absence of phage”. For the same compound, the solubility at 24 h [4] was about 75 µM (≈ 30.1 µg/mL).
For `OC[C@H]1Nc2ccc(-c3cccc(F)c3)cc2[C@H]2[C@@H]1CCN2Cc1ccncc1` [BRD7087, ((3aR,4S,9bR)-8-(3-Fluorophenyl)-1-(pyridin-4-ylmethyl)-2,3,3a,4,5,9b-hexahydro-1H-pyrrolo[3,2-c]quinolin-4-yl)methanol], the IC50 [1] was about 5 µM, the “activity in mKate2 assay” value [1] was “Dose-dependent recovery of the mKate2 signal; also recorded: more active than BRD5779” and the “inhibition of SpCas9-mediated NHEJ” value [2] was “Dose-dependent inhibition of SpCas9-mediated NHEJ; also recorded: active”. For the same compound, the “toxicity to bacteria in the absence of phage” value [3] was “non-toxic in the absence of phage” and the solubility at 24 h [4] was about 75 µM (≈ 29.2 µg/mL).
